Reference: patent US8293212B2, “Inhibitor screening method and atopic dermatitis like symptom inducing method which utilizes induction of production of interleukin 18 by keratinocyte and utilization of same” (Japan Science & Technology Agency, priority 2003, dated 2012)
Where a SMILES comes first, the peptide text is derived from it. The star is where a group is joined. Cbz = O=C(OCc1ccccc1)*; CH2F = FC*

Assays:
Kupffer cells [1] = settings: secretion caused by LPS or membrane-bound Fas ligand stimulation; stated as background; cited from earlier work
[2] = tested on: KC of wild-type mice stimulated with SpA; assay: Effect of caspase inhibitors on IL-18 secretion from SpA-stimulated KC; type: cell-based, mouse; settings: 20 μM inhibitor, 500 μg/ml SpA, 24 hours (FIG. 7C)
Description: (§1) KC (5×10^5/ml) or PAM212 cells (2×10^5/ml) were incubated with a variety of doses of SpA and 1 μg/ml LPS or mFasL (1×10^6/ml) for 24 hours. In some examples, KC of wild-type mice were incubated with 100 μg/ml SpA in the presence of 20 μM of ZVAD or YVAD for 24 hours. IL-18 concentration and its activity in each supernatant were determined by ELISA and bioassay respectively. In some examples, KC were incubated with 500 μg/ml SpA for 4 hours, and total RNA was extracted, followed by RT-PCR (see Tsutsui, H., Matsui, K., Kawada, N., Hyodo, Y., Hayashi, N., Okamura, H., Higashino, K. and Nakanishi, K. 1997. IL-18 accounts for both TNF-α and Fas ligand-mediated hepatotoxic pathways in endotoxin-induced liver injury in mice. J. Immunol. 159:3961). As to primers for IL-18, IL-12p35, IL-12p40, or β-actin, and PCR conditions for individual cytokines, see the Tsutsui et al.
To be specific, KC were prepared from wild-type mice, caspase-1-deficient mice, TLR2-deficient mice, or MyD88-deficient mice. The KC of the wild-type mice were incubated with 500 μg/ml SpA in the presence of 20μ MZVAD, 20 μM YVAD, or the same volume of DMSO(Veh) for 24 hours. On the other hand, KC from each of the mutants were incubated with 500 μg/ml SpA for 24 hours. IL-18 in each supernatant was measured by ELISA. The result is illustrated in FIG. 7C. […]

[3] = tested on: KC from wild-type B6 mice; assay: IL-18 secretion from newly isolated KC after stimulation, ELISA of supernatant; type: cell-based, mouse
Description: (§2) Concentration of IL-18 was determined by an ELISA kit manufactured by MBL. IL-4, IFN-γ, and IL-1β were determined by an ELISA kit manufactured by Genzyme. An ELISA kit for IL-5 was purchased from Endogen. IgE serum level was determined by an ELISA kit manufactured by pharMingen. IFN-γ induction ability of IL-18 was determined by bioassay using clones of IL-18-responsive mouse NK cells (see Non-Patent Document 6 and others)
In order to delete DC, KC were incubated with CD11c microbeads (manufactured by Miltenyi Biotec), and then CD 11c^+ cells were depleted using an AutoMACS™ separator.
as §1, with “al. […]” for “al.”
To be specific, KC or CD11c^+ cell-depleted KC prepared from skin of wild-type B6 mice were analyzed for their expression of CD11c and MHC class II (1-A^b) by flow cytometry. These cells were incubated with or without SpA for 24 hours, and concentration of IL-18 in the resulting supernatant was measured by ELISA. […]
Further, because Kupffer cells secrete IL-18 in response to stimulation with LPS or membrane-bound Fas ligand, it was examined whether these stimuli induce IL-18 secretion from KC. […] IL-18 contained in each resulting supernatant was measured by ELISA.

normal B6 mice = assay: Application of SpA on ear skin of normal B6 mice, serum IL-18/IgE and Th1/Th2 differentiation; type: in vivo, mouse
Description: Splenic CD4^+ T cells were isolated from variously treated mice using an AutoMACS™ separator (manufactured by Miltenyi Biotec). The newly isolated spleen cells were incubated with anti-CD4 beads (manufactured by Miltenyi Biotec). The purity of the CD4^+ T cells was more than 98%. The cells (1×10^6/ml) were incubated with immobilized anti-CD3ε (manufactured by PharMingen) for 48 hours. Concentrations of IFN-γ and IL-4 in each supernatant were determined by ELISA.
as §2
Solutions made by dissolving various doses of SpA in 5 μl vehicle (50% glycerol in PBS) were prepared, and the SpA solutions were applied on ear skin of wild-type mice for 14 days. For the control study, 5 μl vehicle without SpA was used. One mouse was caged to avoid effects from other mice.
To be specific, various amounts of SpA or only vehicles were applied on ear skin of normal B6 mice once a day for two weeks. After that, on day 14, serum and spleens were sampled so as to measure concentration of IL-18 or IgE. Further, splenic CD4^+ T cells from mice on which vehicle or SpA(100 μg/day) was applied were incubated with plate-bound anti-CD3 for 48 hours, and concentrations of IFN-γ and IL-4 in each supernatant were measured by ELISA. The results of the measurements are illustrated in FIGS. 6A through 6C.

NC/Nga mice = assay: Induction of AD-like skin lesion by application on shaven backs of NC/Nga mice; type: in vivo, mouse; settings: 4% of SDS, SpA 200 μg/day, alone or as mixture
PAM212 cells = assay: IL-18 secretion and IFN-γ-inducing bioactivity of IL-18 from PAM212 cells incubated with SpA; type: cell-based, mouse; settings: PAM212 cells incubated with SpA 24 hours (FIG. 7A)
Description: as §2
To be specific, LNK5E6 cells, having higher responsiveness to stimulation with IL-18 in terms of IFN-γ production than LNK5E3 cells (see Non-Patent Document 6), were incubated with a variety of samples and 100 pg/ml IL-12, in the presence or absence of anti-IL-18 antibody (50 μg/ml), for 48 hours. […]
KC (5×10^5/ml) or PAM212 cells (2×10^5/ml) were incubated with a variety of doses of SpA and 1 μg/ml LPS or mFasL (1×10^6/ml) for 24 hours. […] IL-18 concentration and its activity in each supernatant were determined by ELISA and bioassay respectively. […]
To be specific, PAM212 cells (culture strain of KC of mice) were incubated with or without SpA for 24 hours, and the IL-18 concentration and IFN-γ-inducing bioactivity of IL-18 in each supernatant were determined by ELISA and bioassay respectively. […] ND stands for “not detected”.

Kupffer cells [4] = assay: Cytokine expression and secretion of Kupffer cells after stimulation; type: cell-based, mouse; settings: in response to SpA, data not shown
Description: Kupffer cells were prepared according to Non-Patent Document 6. Kupffer cells (1×10^6/ml) were incubated with 1 μg/ml LPS (lypopolysaccharide) for 4 hours, and their IL-18, IL-12p35, IL-12p40 and β-actin expressions were determined as mRNA levels by RT-PCR.
Next, it was examined whether SpA-stimulated KC secretes IL-12 as well as IL-18. In order to detect a small amount of IL-12, total RNA were obtained from KC that had been incubated with SpA for 4 hours, and RT-PCR was performed using the RNA. To be specific, KC and Kupffer cells of wild-type B6 mice were separately incubated in the presence/absence of 500 μg/ml SpA, and in the presence/absence of 1 μg/ml LPS for 4 hours. Expression level of mRNA of IL-18, IL-12p40, IL-12p35, and β-actin out of all extracted RNA were measured by RT-PCR. The result of the measurement is illustrated in FIG. 7D.

KC of wild-type B6 mice = assay: IL-12 expression (RT-PCR) and IL-12 secretion (ELISA) in SpA-stimulated KC; type: cell-based, mouse
Description: as §1
Next, it was examined whether SpA-stimulated KC secretes IL-12 as well as IL-18. In order to detect a small amount of IL-12, total RNA were obtained from KC that had been incubated with SpA for 4 hours, and RT-PCR was performed using the RNA. […] Expression level of mRNA of IL-18, IL-12p40, IL-12p35, and β-actin out of all extracted RNA were measured by RT-PCR. […]

| Molecule | inhibition of IL-18 secretion from Kupffer cells (Kupffer cells [1]) | inhibition of secretion of IL-18 from SpA-stimulated KC [2] | IL-18 produced by KC ([3]; 500 μg/ml SpA without adding DMSO, 24 hours (FIG. 7C)) [pg/mL] | IL-18 in supernatant ([3]; KC 5×10^5/ml, 24 hours, 500 μg/ml SpA, 1 μg/ml LPS or 1×10^6/ml mFasL, ND = not detected) [pg/mL] | IL-18 release from newly isolated KC in response to SpA ([3]; various amounts of SpA, 24 hours (FIG. 7B)) | Th1/Th2 differentiation of splenic CD4+ T cells (IFN-γ and IL-4) (normal B6 mice; SpA 100 μg/day, anti-CD3 48 hours (FIG. 6C)) | IL-12p40 and IL-12p70 in sera (ELISA) (normal B6 mice; data not shown) | serum levels of IL-18 (normal B6 mice; ear skin, once a day for two weeks, day 14 (FIG. 6A)) | serum IgE levels (normal B6 mice; ear skin, once a day for two weeks, day 14 (FIG. 6B)) | development of AD / skin lesion like AD (NC/Nga mice) | secretion of activated IL-18 (ELISA and IFN-γ-inducing bioassay) (PAM212 cells) | secretion of IL-12 or IL-18 from Kupffer cells (Kupffer cells [4]) | IL-12p35 and IL-12p40 mRNA expression (RT-PCR) (KC of wild-type B6 mice; 500 μg/ml SpA, 4 hours (FIG. 7D)) | IL-12p40 or IL-12p70 in supernatant (ELISA) (KC of wild-type B6 mice; 24-hour incubation, data not shown) |
| --- | --- | --- | --- | --- | --- | --- | --- | --- | --- | --- | --- | --- | --- | --- |
| CC(=O)N[C@@H](Cc1ccc(O)cc1)C(=O)N[C@H](C(=O)N[C@@H](C)C(=O)N[C@@H](CC(=O)O)C(=O)CCl)C(C)C [YVAD, Ac-YCAD-CMK] | strongly inhibit | did not inhibit |  |  |  |  |  |  |  |  |  |  |  |  |
| COC(=O)C[C@H](NC(=O)[C@H](C)NC(=O)[C@@H](NC(=O)OCc1ccccc1)C(C)C)C(=O)CF [ZVAD, Z-VAD-FMK] (Cbz-Val-Ala-Asp(OMe)-CH2F) | strongly inhibit | did not inhibit |  |  |  |  |  |  |  |  |  |  |  |  |
| SpA: protein A purified from Staphylococcus aureus Cowan 1, purchased from Calbiochem |  |  | 28.4 ± 3.5 | 31.5 ± 3.2 | released IL-18 in a dose-dependent manner | did not show preferential differentiation of Th2 cells | not detected | increased | increased in a dose-dependent manner | do not develop AD | secreted activated IL-18 | did not secrete IL-12 or IL-18 | neither IL-12p35 nor IL-12p40 were detected | not detected |
